Patent publication US8633206B2, “Pyrrolo[2,3-D]pyrimidine compounds” (Pfizer Inc., priority 2009, dated 2014)

What was measured:
Type in all cases: biochemical
JAK1 = JAK1 (Homo sapiens (Human), UniProt P23458); experiment: JAK enzymatic assay (peptide mobility shift), JAK1; conditions: recombinant JAK1 20 nM, IRS-1 peptide, 240 minutes
Procedure: (§1) Recombinant JAK1 (Catalog Number PV4775), JAK2 (Catalog Number PV4210) and JAK3 (Catalog Number PV3855) were purchased from (Invitrogen Corporation, Madison, Wis.). […] Adenosine 5′-triphosphate (ATP) was obtained from (Sigma Chemical Company, St. Louis, Mo.). […] Coating Reagent 3 was purchased from (Caliper Life Sciences, Hopkinton, Mass.).
(§2) Compounds were diluted serially in 100% dimethyl sulfoxide and tested in an 11 point dose response in duplicate or quadruplicate (200 nl of compound/DMSO was added per 10 L reaction). […] The assay was run for 240 minutes for JAK1, 150 minutes for JAK2, 90 minutes for JAK3 and 70 minutes for Tyk2. […] The plates were placed on a LabChip 3000 (LC3000) instrument from (Caliper Life Sciences) to measure the formation of phosphorylated peptide. Data was analyzed using Hits Well Analyzer Software from (Caliper Life Sciences) to obtain the amount of product formed.
(§3) Data was then imported into an internal application where each data point is expressed as % inhibition based on uninhibited and no enzyme controls. Dose-response data is then fit using a 4 parameter logistic equation (Equation 1) to determine an IC50.

JAK2 = JAK2 (Homo sapiens (Human), UniProt O60674); experiment: JAK enzymatic assay (peptide mobility shift), JAK2; conditions: recombinant JAK2 2 nM, JAKtide peptide, 150 minutes
Sequence of JAK2 (O60674 808-1132): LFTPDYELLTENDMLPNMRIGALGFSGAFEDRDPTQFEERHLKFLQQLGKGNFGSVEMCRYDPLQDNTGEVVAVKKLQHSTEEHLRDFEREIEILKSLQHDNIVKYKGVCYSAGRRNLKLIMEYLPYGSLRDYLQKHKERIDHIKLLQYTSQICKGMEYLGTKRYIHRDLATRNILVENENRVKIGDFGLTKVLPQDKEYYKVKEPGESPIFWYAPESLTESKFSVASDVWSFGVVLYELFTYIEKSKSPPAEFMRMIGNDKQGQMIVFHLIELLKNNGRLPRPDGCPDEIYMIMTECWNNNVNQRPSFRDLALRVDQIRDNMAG
Description: Recombinant JAK1 (Catalog Number PV4775), JAK2 (Catalog Number PV4210) and JAK3 (Catalog Number PV3855) were purchased from (Invitrogen Corporation, Madison, Wis.). Tyk2 (His-Tyk2 (888-1182, C936S, C1142S)) used in this study was expressed and purified at Pfizer Laboratories. Adenosine 5′-triphosphate (ATP) was obtained from (Sigma Chemical Company, St. Louis, Mo.). […] Coating Reagent 3 was purchased from (Caliper Life Sciences, Hopkinton, Mass.).
A peptide mobility shift assay was used to quantify the phosphorylation of the JAKtide (JAK2 and JAK3) or the IRS-1 peptide (JAK1 and Tyk2). Reactions were carried out in a 384-well plate (Matrical MP-101) in a 10 L total volume. […] Compounds were diluted serially in 100% dimethyl sulfoxide and tested in an 11 point dose response in duplicate or quadruplicate (200 nl of compound/DMSO was added per 10 L reaction). The reactions were initiated by the addition of enzyme to the final concentration of 2 nM JAK2, 1 nM JAK3, 12 nM Tyk2 or 20 nM JAK1. The assay was run for 240 minutes for JAK1, 150 minutes for JAK2, 90 minutes for JAK3 and 70 minutes for Tyk2. The assays were stopped at the specified times with 20 uL of 140 mM HEPES, 22.5 mM EDTA and 0.15% Coating Reagent 3. The plates were placed on a LabChip 3000 (LC3000) instrument from (Caliper Life Sciences) to measure the formation of phosphorylated peptide. Data was analyzed using Hits Well Analyzer Software from (Caliper Life Sciences) to obtain the amount of product formed.
as §3

JAK3 = JAK3 (Homo sapiens (Human), UniProt P52333); experiment: JAK enzymatic assay (peptide mobility shift), JAK3; conditions: recombinant JAK3 1 nM, JAKtide peptide, 90 minutes
Sequence of JAK3 (P52333 781-1124): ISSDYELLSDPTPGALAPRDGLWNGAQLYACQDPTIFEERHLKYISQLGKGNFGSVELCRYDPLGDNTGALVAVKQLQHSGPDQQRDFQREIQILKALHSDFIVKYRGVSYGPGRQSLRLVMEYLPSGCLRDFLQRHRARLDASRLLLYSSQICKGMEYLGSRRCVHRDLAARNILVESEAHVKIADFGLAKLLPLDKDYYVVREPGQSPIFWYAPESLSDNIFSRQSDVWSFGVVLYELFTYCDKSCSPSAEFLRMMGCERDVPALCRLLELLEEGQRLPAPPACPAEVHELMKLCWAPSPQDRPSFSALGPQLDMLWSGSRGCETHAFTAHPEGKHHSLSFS
Procedure: as §1, §2, §3

Sequence of JAK1 (P23458 whole entry): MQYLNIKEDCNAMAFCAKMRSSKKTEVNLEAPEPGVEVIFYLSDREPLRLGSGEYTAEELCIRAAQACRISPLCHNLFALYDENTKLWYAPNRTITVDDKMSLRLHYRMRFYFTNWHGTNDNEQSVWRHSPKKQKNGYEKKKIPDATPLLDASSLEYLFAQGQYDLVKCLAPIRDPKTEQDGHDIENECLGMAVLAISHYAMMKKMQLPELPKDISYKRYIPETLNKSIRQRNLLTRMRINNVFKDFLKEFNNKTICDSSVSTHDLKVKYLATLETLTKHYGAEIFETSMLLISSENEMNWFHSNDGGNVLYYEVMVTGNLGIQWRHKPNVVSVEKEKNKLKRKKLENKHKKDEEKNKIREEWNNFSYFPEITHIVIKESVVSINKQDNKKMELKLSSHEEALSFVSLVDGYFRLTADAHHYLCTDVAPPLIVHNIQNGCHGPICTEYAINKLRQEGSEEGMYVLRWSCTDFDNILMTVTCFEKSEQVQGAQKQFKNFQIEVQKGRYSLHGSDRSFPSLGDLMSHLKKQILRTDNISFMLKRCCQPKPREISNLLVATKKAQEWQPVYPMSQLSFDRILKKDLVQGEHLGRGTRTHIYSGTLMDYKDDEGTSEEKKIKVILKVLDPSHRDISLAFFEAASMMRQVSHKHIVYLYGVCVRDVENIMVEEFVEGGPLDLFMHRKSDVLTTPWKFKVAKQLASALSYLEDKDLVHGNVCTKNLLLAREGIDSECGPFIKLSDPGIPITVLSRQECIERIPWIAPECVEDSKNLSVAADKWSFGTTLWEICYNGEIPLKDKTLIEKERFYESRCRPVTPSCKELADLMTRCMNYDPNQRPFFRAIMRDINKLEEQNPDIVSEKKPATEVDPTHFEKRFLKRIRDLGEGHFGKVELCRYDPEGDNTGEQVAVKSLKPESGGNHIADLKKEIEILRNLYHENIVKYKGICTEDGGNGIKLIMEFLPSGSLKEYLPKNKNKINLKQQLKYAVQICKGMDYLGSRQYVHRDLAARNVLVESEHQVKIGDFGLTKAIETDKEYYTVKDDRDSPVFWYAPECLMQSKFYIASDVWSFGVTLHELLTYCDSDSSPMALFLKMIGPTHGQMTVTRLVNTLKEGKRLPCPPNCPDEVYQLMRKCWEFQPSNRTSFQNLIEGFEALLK

Row | Structure (SMILES) | IC50 (JAK1) [nM] | IC50 (JAK2) [nM] | IC50 (JAK3) [nM]
1 | CN(c1ncnc2[nH]ccc12)[C@H]1CC[C@H](CS(=O)(=O)N2CC[C@H](c3ccccn3)C2)CC1 [Example 107, N-methyl-N-(trans-4-{[(3-pyridin-2-ylpyrrolidin-1-yl)sulfonyl]methyl}cyclo-hexyl)-7H-pyrrolo[2,3-d]pyrimidin-4-amine] | 2.54 | 6.22 | 36.3
2 | CN(c1ncnc2[nH]ccc12)[C@H]1CC[C@H](CS(=O)(=O)N2CC[C@H](NC(=O)C(F)(F)F)C2)CC1 [Example 75, 2,2,2-trifluoro-N-{(3S)-1-[({trans-4-[methyl(7H-pyrrolo[2,3-d]pyrimidin-4-yl)amino]cyclohexyl}methyl)-sulfonyl]pyrrolidin-3-yl}acetamide] | 19.1 | 62.2 | 399
3 | Cc1ccc(CC2CCN(S(=O)(=O)C[C@H]3CC[C@H](N(C)c4ncnc5[nH]ccc45)CC3)CC2)nn1 [Example 48, N-methyl-N-{trans-4-[({4-[(6-methylpyridazin-3-yl)methyl]piperidin-1-yl}sulfonyl)methyl]cyclo-hexyl}-7H-pyrrolo[2,3-d]-pyrimidin-4-amine] | 22.7 | 84.9 | 753
4 | Cc1ccc(N2CCN(S(=O)(=O)C[C@H]3CC[C@H](N(C)c4ncnc5[nH]ccc45)CC3)CC2)nc1 [Example 118, N-methyl-N-[trans-4-({[4-(5-methylpyridin-2-yl)piperazin-1-yl]sulfonyl}-methyl)cyclohexyl]-7H-pyrrolo[2,3-d]pyrimidin-4-amine] | 16.7 | 50.8 | 255
5 | C[C@H]1CN(S(=O)(=O)C[C@H]2CC[C@H](N(C)c3ncnc4[nH]ccc34)CC2)C[C@@H]1CO [Example 135, {(3r,4r)-4-methyl-1-[({trans-4-[methyl(7H-pyrrolo[2,3-d]pyrimidin-4-yl)amino]cyclohexyl}methyl)sulfonyl]pyrrolidin-3-yl}methanol] | 0.00199 | 0.0165 | 0.198
6 | CN(c1ncnc2[nH]ccc12)[C@H]1CC[C@H](CS(=O)(=O)N2CCC[C@H](CO)C2)CC1 [Example 62, {1-[({trans-4-[methyl(7H-pyrrolo[2,3-d]pyrimidin-4-yl)amino]cyclohexyl}-methyl)sulfonyl]piperidin-3-yl}methanol] | 2.4 | 20.1 | 233
7 | CN(c1ncnc2[nH]ccc12)[C@H]1CC[C@H](CS(=O)(=O)N2CCSC2)CC1 [Example 124, N-methyl-N-{trans-4-[(1,3-thiazolidin-3-ylsulfonyl)-methyl]cyclohexyl}-7H-pyrrolo[2,3-d]pyrimidin-4-amine] | 8.8 | 29.5 | 122
8 | CN(c1ncnc2[nH]ccc12)[C@H]1CC[C@H](CS(=O)(=O)N2CCC(O)(c3ccccc3)CC2)CC1 [Example 24, 1-[({trans-4-[methyl(7H-pyrrolo[2,3-d]pyrimidin-4-yl)amino]cyclohexyl}methyl)-sulfonyl]-4-phenyl-piperidin-4-ol] | 5.03 | 7.42 | 37.4
9 | CN(c1ncnc2[nH]ccc12)[C@H]1CC[C@H](CS(=O)(=O)N2CCN(c3ccccn3)CC2)CC1 [Example 120, N-methyl-N-(trans-4-{[(4-pyridin-2-ylpiperazin-1-yl)sulfonyl]methyl}cyclo-hexyl)-7H-pyrrolo[2,3-d]-pyrimidin-4-amine] | 8.43 | 22.3 | 208
10 | CN(c1ncnc2[nH]ccc12)[C@H]1CC[C@H](CS(=O)(=O)N2CCCC(O)(COc3cccc(F)c3)C2)CC1 (stereo partly drawn) [Example 19, 3-[(3-fluorophenoxy)-methyl]-1-[({trans-4-[methyl(7H-pyrrolo[2,3-d]pyrimidin-4-yl)amino]-cyclohexyl}methyl)sulfonyl]-piperidin-3-ol] | 14.8 | 46.8 | 492
11 | CN(c1ncnc2[nH]ccc12)[C@H]1CC[C@H](CS(=O)(=O)N2CC(c3ncccn3)C2)CC1 [Example 110, N-methyl-N-(trans-4-{[(3-pyrimidin-2-ylazetidin-1-yl)sulfonyl]methyl}cyclo-hexyl)-7H-pyrrolo[2,3-d]pyrimidin-4-amine] | 16.4 | 22.6 | 294
12 | CN(c1ncnc2[nH]ccc12)[C@H]1CC[C@H](CS(=O)(=O)N2CC[C@H](S(C)(=O)=O)C2)CC1 [Example 76, N-methyl-N-[trans-4-({[3-(methylsulfonyl)pyrrolidin-1-yl]sulfonyl}methyl)-cyclohexyl]-7H-pyrrolo[2,3-d]pyrimidin-4-amine] | 2.98 | 27.2 | 125
13 | CNC(=O)C1CCN(S(=O)(=O)C[C@H]2CC[C@H](N(C)c3ncnc4[nH]ccc34)CC2)CC1 [Example 54, N-methyl-1-[({trans-4-[methyl(7H-pyrrolo[2,3-d]-pyrimidin-4-yl)amino]-cyclohexyl}methyl)sulfonyl] piperidine-4-carboxamide] | 22 | 44.9 | 377
14 | CN(c1ncnc2[nH]ccc12)[C@H]1CC[C@H](CS(=O)(=O)N2CC[C@](O)(c3ccccn3)C2)CC1 [Example 103, 1-[({trans-4-[methyl(7H-pyrrolo[2,3-d]pyrimidin-4-yl)-amino]cyclohexyl}-methyl)sulfonyl]-3-pyridin-2-ylpyrrolidin-3-ol] | 10.6 | 35.8 | 294
15 | CN(c1ncnc2[nH]ccc12)[C@H]1CC[C@H](CS(=O)(=O)N2C[C@](C)(CO)[C@](C)(CO)C2)CC1 [Example 79, {(3R,4S)-3,4-dimethyl-1-[({trans-4-[methyl(7H-pyrrolo[2,3-d]pyrimidin-4-yl)amino]cyclohexyl}methyl)-sulfonyl]pyrrolidine-3,4-diyl}dimethanol] | 14.4 | 55.6 | 580
16 | CN(c1ncnc2[nH]ccc12)[C@H]1CC[C@@H](CS(=O)(=O)N2CCC[C@H](C#N)C2)CC1 [Example 39, 1-[({cis-4-[methyl(7H-pyrrolo[2,3-d]pyrimidin-4-yl)amino]cyclohexyl}-methyl)sulfonyl]piperidine-3-carbonitrile] | 23.4 | 75.4 | 393
17 | CN(c1ncnc2[nH]ccc12)[C@H]1CC[C@H](CS(=O)(=O)N2CC[C@](CO)(CCO)C2)CC1 [Example 95, 2-{3-(hydroxymethyl)-1-[({trans-4-[methyl(7H-pyrrolo[2,3-d]pyrimidin-4-yl)amino]cyclohexyl}-methyl)sulfonyl]pyrrolidin-3-yl}-ethanol] | 12.5 | 45.8 | 612
18 | CCC1(NC(=O)OCc2ccccc2)CCCN(S(=O)(=O)C[C@H]2CC[C@H](N(C)c3ncnc4[nH]ccc34)CC2)C1 (stereo partly drawn) [Example 4, benzyl {3-ethyl-1-[({trans-4-[methyl(7H-pyrrolo[2,3-d]pyrimidin-4-yl)amino]cyclohexyl}methyl)-sulfonyl]piperidin-3-yl}carbamate] | 44.6 | 71.7 | 846
19 | CN(c1ncnc2[nH]ccc12)[C@H]1CC[C@H](CS(=O)(=O)N2C[C@@H](O)[C@H](C#N)C2)CC1 [Example 36, (3S,4S)-4-hydroxy-1-[({trans-4-[methyl(7H-pyrrolo[2,3-d]pyrimidin-4-yl)amino]cyclohexyl}methyl)-sulfonyl]pyrrolidine-3-carbonitrile] | 5.35 | 18.7 | 123
20 | CN(c1ncnc2[nH]ccc12)[C@H]1CC[C@H](CS(=O)(=O)N2CCCC(COc3ccc(F)cc3)C2)CC1 (stereo partly drawn) [Example 15, N-{trans-4-[({3-[(4-fluoro-phenoxy)methyl]piperidin-1-yl}sulfonyl)methyl]-cyclohexyl}-N-methyl-7H-pyrrolo[2,3-d]pyrimidin-4-amine] | 5.91 | 32 | 10000
21 | CN(c1ncnc2[nH]ccc12)[C@H]1CC[C@H](CS(=O)(=O)N2CCC(C#N)CC2)CC1 [Example 42, 1-[({trans-4-[methyl(7H-pyrrolo[2,3-d]pyrimidin-4-yl)amino]cyclohexyl}-methyl)sulfonyl]piperidine-4-carbonitrile] | 16.5 | 66.9 | 431
